The record followed here is paper PMC12744750 (Plant Communications, 2025).

In experiment [1] the test system is Arabidopsis pls mutant seedlings (primary root length). Nature of the experiment: Hydroponic peptide feeding: rescue of short primary root of pls mutant. The experiment is classed as in vivo, Arabidopsis thaliana. The protocol: (A) Amino acid sequence of the PLS peptide from Arabidopsis thaliana with the Camelina sativa PLS sequence and the synthetic truncations N1, N2, C1, and C2 indicated by horizontal lines. Two cysteine residues are highlighted in bold. (B) Effect of the synthetic Arabidopsis PLS full-length peptide, A. thaliana PLS(FL), and the Camelina PLS peptide (C. sativa PLS) on Arabidopsis primary root length. Wild-type (C24; blue bars) and pls mutant seedlings (orange bars) were grown hydroponically in the presence (100 nM) or absence of peptide for 10 days. ∗∗∗P < 0.05, t-test between C24 and pls. Error bars show ±1 standard error of the mean, n = 20. (C) Effect of synthetic full-length and truncated peptides on primary root length of wild-type (blue bars) and pls mutant (orange bars) Arabidopsis. Seedlings were grown hydroponically in the presence of 50 nM peptide for 10 days. C1, C-terminal 14 amino acids; C2, C-terminal 24 amino acids; N1, N-terminal 22 amino acids; N2, N-terminal 9 amino acids; full-length PLS, 36 amino acids. Error bars show ±1 standard error of the mean, n = 25. ∗∗∗P < 0.05, t-test between C24 and pls.
proPLS::PLS:GFP comprises a 1.5-kb PLS promoter sequence ([Casson et al., 2002]) fused to the PLS open reading frame in pMDC107 (obtained from Prof. P.J. Hussey, Durham University) as a C-terminal GFP translational fusion. The PLS ORF with its 1.5-kb promoter was amplified from the TOPO 2.1 vector, which contained the PLS gene sequence with promoter ([Casson et al., 2002]); the primers used for cloning are listed in supplemental Table 9. pls mutant plants were transformed using the method of [Clough and Bent (1998)]. proPLS::GFP plants were generated using the 1.5-kb PLS promoter ([Casson et al., 2002]) fused to GFP in a wild-type background. p35S::GFP seedlings were obtained from Dr. Piers Hemsley, Durham University. Seedlings of Arabidopsis thaliana ecotype C24 or Col-0, pls mutants, and transgenic PLS overexpressers, all from lab stocks, were grown on solid sterile half-strength (2.2 g/l) Murashige and Skoog medium (Sigma-Aldrich) containing 10 g/l sucrose (half-strength [½] MS10 medium) solidified with 2.5 g/l Phytagel (Sigma-Aldrich) in 90-mm Petri dishes (Sarstedt, Leicester, UK) at 21°C under a 16-h photoperiod as described previously ([Casson et al., 2002]; [Chilley et al., 2006]). N. benthamiana plants (lab stocks) were grown in a controlled environment (21°C, 16-h photoperiod) for transient expression studies in leaf tissue. For hydroponic feeding studies, Arabidopsis seedlings were cultured in liquid ½ MS10 medium (1 ml/well) in sterile 24-well plates (Sarstedt), essentially as described in [Matsuzaki et al. (2010]). For hormone and peptide assays, one seedling was grown in each well at 21°C under a 16-h photoperiod. For peptide feeding experiments, purified freeze-dried peptide was dissolved in DMSO to create a 500-μM stock solution. The peptide stock solution was added to liquid ½ MS10 medium containing 0.1% DMSO to obtain a final peptide concentration of 50 or 100 nM (or 10, 25, 50, and 100 nM for dose-dependent assays). For copper treatments, 1 mM CuSO4 solution was filter sterilized and added to autoclaved liquid ½ MS10 medium to obtain final CuSO4 concentrations of 0, 5, 10, 15, 20, 25, 30, 35, 40, 45, and 50 μM. Seedlings were scanned to create a digital image, and root lengths of the seedlings were measured using ImageJ. Statistical analysis was performed using Real Statistics Resource Pack software (release 3.8, www.real-statistics.com) in Excel (Microsoft) using data from at least 10 independently grown seedlings for root growth analysis; specific numbers are defined for each experiment.

The nature of experiment [2]: Anaerobic Cu(I) titration in competition with bicinchoninic acid (BCA). The experiment is classed as binding. The protocol:
Freeze-dried synthetic PLS peptide (Cambridge Research Biochemicals) was dissolved in DMSO. An aliquot was added to aqueous buffer (10 mM HEPES [pH 7], 20 mM NaCl, 80 mM KCl), and absorbance was recorded at 280 nm. PLS concentration was estimated from the absorbance and the ProtParam estimated extinction coefficient of 2980 M^−1 cm^−1. Concurrently, a sample was submitted for quantitative amino acid analysis (Abingdon Health Laboratory Services). From this analysis, a conversion factor of 2.27 was generated, which was applied to the concentrations determined by A280 nm.
A fusion of PLS to MBP was created using the NEBExpress MBP Fusion and Purification System. Two complementary oligonucleotide primers encoding PLS (optimized for expression in E. coli) were annealed and inserted into the pMal-c5x plasmid at the XmnI and SalI insertion sites. The three mutants MBP:PLS(C6S), MBP:PLS(C17S), and MBP:PLS(C6S/C17S) were created by site-directed mutagenesis (QuikChange II, Agilent). E. coli NEB Express containing the pMal plasmid with the correct MBP:PLS mutant was used to overexpress each protein. Harvested cells were resuspended in 20 mM Tris–HCl (pH 7.4), 200 mM NaCl, and 1 mM EDTA, then frozen at −20°C overnight. Cells were defrosted in cold H2O, sonicated, purified by ammonium sulfate precipitation (where MBP-PLS precipitates >60% saturation), separated on an MBP-Trap column (GE Healthcare), and eluted using buffer containing 10 mM maltose. MBP:PLS-containing fractions were pooled and concentrated using a centrifugal concentrator (Corning, Spin-X UF 30 kDa) and buffer exchanged by desalting column into a metal-free buffer of 20 mM HEPES (pH 7.0) and 50 mM NaCl in an anaerobic chamber (Belle Technology). Mutants containing thiols were quantified using Ellman’s assay, and MBP:PLS(C6S/C17S), which lacks all thiols, was quantified using the Bradford assay alone. Samples were also analyzed for metal content by ICP–MS to ensure >95% apo-protein.
All Cu(I) titration experiments were carried out in an anaerobic chamber (Belle Technology) using metal-free CHELEX-treated, degassed buffers. For titration experiments with Cu(I), aqueous CuSO4 stock was quantified in advance by ICP–MS and diluted to working concentrations. The reductant NH2OH was included at a final concentration of 1 mM to maintain Cu(I) in its reduced state. Proteins were diluted in buffer to the final concentration specified in each titration in air-tight quartz cuvettes (Helma), and after addition of probe to the concentration specified, titrated with CuSO4. After each addition, solutions were thoroughly mixed and absorbance spectra recorded using a Lambda 35 UV/Vis spectrophotometer (PerkinElmer). Titration isotherm data were fitted using simulated affinity curves with DynaFit ([Kuzmič, 2009]).

The mark [3] stands for this setting: 44.8 μM synthetic PLS, 87 μM BCA, anaerobic.

Consider “PLS(FL): full-length 36-amino-acid PLS peptide from Arabidopsis (MKPRLCFNFRRRSISPCYISISYLLVAKLFKLFKIH)”, for which the “rescue of root growth of pls seedlings” value in experiment [1] (50 nM peptide, hydroponic, 10 days, n = 25 (Figure 2C)) is “rescued root growth”. Also, the “difference in rescue effects of PLS(FL) and PLS(N1), t-test P” value in experiment [1] (50 nM, n = 25) is more than 0.1. In addition, the “difference in rescue effects of PLS(FL) and PLS(N1)” value in experiment [1] (50 nM, n = 25, t-test) is recorded as “did not differ significantly”. Moreover, in experiment [1] (hydroponic, 10 days, 100 nM (Figure 2B) or 50 nM (Figure 2C)), the “rescue of short primary root length of pls mutant” value is on record as “able to rescue the short primary root length”. Further, in experiment [2] (setting [3]), the “Cu(I) affinity relative to BCA” value was “tighter than that of BCA” and the “increase in Cu(I) concentration required to saturate BCA” value was approximately 20 µM. In addition, the “withholding of Cu(I) from BCA” value in experiment [2] (synthetic peptide, mutant 40 μM, BCA 93.3 μM, mean ± SD, n = 3 (supplemental Figure 10)) was “withholds Cu(I) from BCA”.
